These results are taken from the NIST ThermoML archive (doi:10.1021/je400054m).

The conditions of data set [1]: DTA.
Data set [2] in a line: Molar enthalpy of transition or fusion. Particulars: DSC.

Numbers after ± are expanded uncertainties.

Regarding `CCCCC(=O)[O-].[Li+]` [lithium pentanoate], the Normal melting temperature in data set [1] (Crystal 1) was determined as 301.10 ± 0.7 °C. Moreover, the Triple point temperature in data set [1] (Crystal 2) is on record as 323.45 ± 0.7 K. Also, the “Molar enthalpy of transition or fusion” value in data set [2] (Crystal 1) was found to be 5.25 ± 0.335 kcal/mol; in data set [2] (Crystal 2), 0.941 ± 0.0693 kcal/mol.
For `CCCCCCC(=O)[O-].[Li+]` [lithium heptanoate] the same measures were 274.40 ± 0.7 °C, 316.55 ± 0.7 K, 5.93 ± 0.382 kcal/mol and 1.49 ± 0.1 kcal/mol.
Take `CCCCCCCCCCC(=O)[O-].[Li+]` [lithium undecanoate]: in data set [1] (Crystal 1), the Normal melting temperature was found to be 235.50 ± 0.7 °C. In addition, in data set [1] (Crystal 2), the Triple point temperature was determined as 364.55 ± 0.7 K. Besides, the entries for the “Molar enthalpy of transition or fusion” value in data set [2] (Crystal 1) and in data set [2] (Crystal 2) were 6.76 ± 0.43 kcal/mol and 3.3 ± 0.21 kcal/mol, respectively.
As to `CCCCCCCCCC(=O)[O-].[Li+]` [lithium decanoate], the Triple point temperature in data set [1] (Crystal 2) was 309.65 ± 0.7 K. For the same molecule, the “Molar enthalpy of transition or fusion” value in data set [2] (Crystal 2) was found to be 0.111 ± 0.0287 kcal/mol.
In the case of `CCCCCCCCC(=O)[O-].[Li+]` [lithium nonanoate], the Normal melting temperature in data set [1] (Crystal 1) worked out at 251.10 ± 0.7 °C. The Triple point temperature in data set [1] (Crystal 2) amounted to 348.95 ± 0.7 K. Also, the “Molar enthalpy of transition or fusion” value in data set [2] (Crystal 1) was 6.13 ± 0.382 kcal/mol; in data set [2] (Crystal 2) it was 1.92 ± 0.129 kcal/mol.
Take `CCCCCCCCCCCC(=O)[O-].[Li+]` [lithium dodecanoate]: in data set [1] (Crystal 1), the Normal melting temperature came out at 227.40 ± 0.7 °C. In addition, the Triple point temperature is 346.05 ± 0.7 K in data set [1] (Crystal 2) and 314.45 ± 0.7 K in data set [1] (Crystal 3). For the same molecule, the “Molar enthalpy of transition or fusion” value amounted to 6.78 ± 0.43 kcal/mol in data set [2] (Crystal 1), 1.66 ± 0.112 kcal/mol in data set [2] (Crystal 2) and 0.138 ± 0.0335 kcal/mol in data set [2] (Crystal 3).
As to `CCCCCCCC(=O)[O-].[Li+]` [lithium octanoate], in data set [1] (Crystal), the Normal melting temperature came out at 264.30 ± 0.7 °C. Moreover, the “Molar enthalpy of transition or fusion” value in data set [2] (Crystal) came out at 5.73 ± 0.359 kcal/mol.
As for `CCCC(=O)[O-].[Li+]` [lithium butanoate], the Normal melting temperature in data set [1] (Crystal) is 316.80 ± 0.7 °C. For the same molecule, in data set [2] (Crystal), the “Molar enthalpy of transition or fusion” value stood at 4.96 ± 0.311 kcal/mol.
For `CC(=O)[O-].[Li+]` [lithium acetate] the same measures were 283.10 ± 0.7 °C and 2.87 ± 0.186 kcal/mol.
On to `CCCCCC(=O)[O-].[Li+]` [lithium hexanoate], for which, in data set [1] (Crystal), the Normal melting temperature was determined as 287.20 ± 0.7 °C. Further, the “Molar enthalpy of transition or fusion” value in data set [2] (Crystal) came out at 5.49 ± 0.359 kcal/mol.
Take `CCC(=O)[O-].[Li+]` [propionic acid, lithium salt]: the Normal melting temperature in data set [1] (Crystal 1) stood at 331.00 ± 0.7 °C. Moreover, the Triple point temperature in data set [1] (Crystal 2) stood at 530.55 ± 0.7 K. For the same molecule, the “Molar enthalpy of transition or fusion” value in data set [2] (Crystal 1) was 3.81 ± 0.239 kcal/mol; in data set [2] (Crystal 2), 0.817 ± 0.0645 kcal/mol.
As for `O=C[O-].[Li+]` [lithium methanoate], the Normal melting temperature in data set [1] (Crystal 1) turned out to be 272.20 ± 0.7 °C. Further, in data set [1] (Crystal 2), the Triple point temperature worked out at 508.55 ± 0.7 K. Besides, the “Molar enthalpy of transition or fusion” value in data set [2] (Crystal 1) is 3.84 ± 0.239 kcal/mol; in data set [2] (Crystal 2) it was 0.451 ± 0.043 kcal/mol.
